Columns and labels:
Velvetleaf = Velvetleaf control after glyphosate spray, by nozzle type and adjuvant; format: in vivo; details: 28 days after treatment with glyphosate (0.375 lb ae/ac)
From the text: (§1) The numbers in this table are percent control or percent kill of the weed.

Hemp sesbania = Hemp sesbania control after glyphosate spray, by nozzle type and adjuvant; format: in vivo; details: 28 days after treatment with glyphosate (0.375 lb ae/ac)
From the text: as §1

O=C(O)CNCP(=O)(O)O [glyphosate]
Velvetleaf control, InJet 110015 Nozzle (Velvetleaf; Table 1, InJet 110015 nozzle): 85% | Velvetleaf control, XR110015 Nozzle (Velvetleaf; Table 1): 83% | Velvetleaf control, DR 110015 Nozzle (Velvetleaf; Table 5, DR 110015 nozzle): 90% | Velvetleaf control, XR110015 Nozzle (Velvetleaf; Table 5): 87% | Hemp sesbania control, InJet 110015 Nozzle (Hemp sesbania; Table 2, InJet 110015 nozzle): 20% | Hemp sesbania control, XR110015 Nozzle (Hemp sesbania; Table 2): 41% | Hemp sesbania control, DR 110015 Nozzle (Hemp sesbania; Table 6, DR 110015 nozzle): 50% | Hemp sesbania control, XR110015 Nozzle (Hemp sesbania; Table 6): 67%

— patent US20060180677A1, “Agricultural compositions which enhance performance of pesticides applied through drift reducing nozzles” (priority 2005, published 2006)
